# Results from PubChem BioAssay AID1996.
# Conditions: buffer; pH 7.4; 200.0 µM
row,solubility kinetic,Compound
1,36.4 µg/mL,O=C(C1CCC1)N1CCN(c2ccc(Cl)cc2)CC1
2,21.2 µg/mL,CSc1nsc(NC(=O)Nc2ccccc2)n1
3,0.9 µg/mL,O=c1[nH]c(SCCOc2ccccc2F)nc2ccccc12
4,> 23.6 µg/mL,O=C(O)c1cccc(Cl)n1
5,37 µg/mL,COCCn1cnc2c1c(=O)[nH]c(=O)n2Cc1ccccc1
6,> 73.1 µg/mL,COC(=O)c1ccccc1S(=O)(=O)N1CCC(C(=O)Nc2ccc(N3CCOCC3)cc2)CC1
7,2.4 µg/mL,CCOc1ccccc1NC(=O)CN1C(=O)COc2ccc(C)cc21
8,> 69.7 µg/mL,O=C(CNCc1ccco1)Nc1cc(S(=O)(=O)N2CCOCC2)ccc1N1CCOCC1
9,> 46 µg/mL,CC(=O)Nc1ccc(SC(C)C(=O)NC2CCCC2)cc1 (configuration not stated)
10,25.8 µg/mL,O=C(Nc1ccccc1Cl)NC1(C(=O)N2CCOCC2)CCCCC1
11,> 42.9 µg/mL,COn1c(=O)c(-c2ccc(F)cc2)[n+]([O-])c2ccccc21
12,> 38.7 µg/mL,COc1ccccc1Oc1ncnc2sccc12
13,7.3 µg/mL,CN(C)S(=O)(=O)c1ccc(Cl)c(NC(=O)COC(=O)CCC2CCCCC2)c1
14,50.1 µg/mL,COc1ccc(NC(=O)CSCc2ccc([N+](=O)[O-])cc2)cc1OC
15,> 64.9 µg/mL,CCN(CC(=O)Nc1ccc2c(c1)OCCO2)C(=O)c1ccc(CS(C)(=O)=O)cc1
16,> 39.4 µg/mL,Cc1cccc(C)c1NC(=O)N1CC(C)OC(C)C1 (configuration not stated)
17,11.4 µg/mL,O=C1CC(c2ccccc2F)c2c(c3ccccc3[nH]c2=O)O1 (configuration not stated)
18,39.3 µg/mL,C[n+]1ccc(C(=O)NCc2ccccc2)cc1.[I-]
19,38 µg/mL,Nc1nc(Nc2ccccc2)nc(NCCO)c1[N+](=O)[O-]
20,1 µg/mL,Cc1ccc(N2C(=O)CS/C2=N\C(=S)Nc2ccccc2)cc1
21,25.4 µg/mL,COc1ccc(CCNC(=O)COC(=O)C2CC2)cc1
22,> 46.2 µg/mL,Cc1ccc(C#CC[N+]2(C)CCCCC2)cc1.[Br-]
23,6.5 µg/mL,O=C(CC1CCC1)NC(c1ccccc1)c1ccccc1
24,> 67.9 µg/mL,CCN(C(=O)CSc1nnc(-c2ccc(OC)cc2)n1C(C)C)C1CCS(=O)(=O)C1 (configuration not stated)

row,solubility kinetic,Compound
1,38.6 µg/mL,CC(=O)C(Sc1ncnc2sc3c(c12)CCCC3)C(C)=O
2,40.4 µg/mL,C=CCON/C(CCC)=C1\C(=O)C(C(=O)OC)C(C)(C)CC1=NC (configuration not stated)
3,> 53.7 µg/mL,CCN(CC)Cc1c(O)ccc2c(=O)c(-c3ccccc3Cl)coc12
4,> 50.6 µg/mL,CC(OC(=O)c1c(F)cccc1F)C(=O)NCCC1=CCCCC1 (configuration not stated)
5,> 56.1 µg/mL,O=C(COc1ccc([N+](=O)[O-])cc1Cl)NCCN1C(=O)CSC1=O
6,> 41.3 µg/mL,O=C(O)C1CCN(S(=O)(=O)c2cccs2)CC1
7,> 46 µg/mL,CCN(CC(=O)NCc1cccs1)C(=O)c1ccc(C)o1
8,33 µg/mL,CCCOc1ccc2nc(C)c(CCC)c(SC(=N)N)c2c1.Cl
9,> 46.4 µg/mL,Cc1cccnc1NC(=O)C(C)N1C(=O)c2ccccc2C1=O (configuration not stated)
10,40.6 µg/mL,CCN1CCN(C(=O)c2ccc(C(F)(F)F)cc2)CC1
11,< 0.6 µg/mL,O=C(Nc1cccc(Cl)c1)OCCOc1ccccc1
12,3.9 µg/mL,CCOC(=O)CNC(=O)C12CC3CC(C1)CC(c1ccc(C)cc1)(C3)C2
13,8.5 µg/mL,O=C(NC(=S)NC1CCCCC1)c1ccccc1
14,17.8 µg/mL,C(#CC12CC3CC(CC(C3)C1)C2)CN1CCOCC1
15,> 59.8 µg/mL,CCOCCCNC(=O)c1ccc(C2SCC(=O)N2Cc2ccccc2)cc1 (configuration not stated)
16,> 49.9 µg/mL,CC1CCc2sc3ncnc(N4CCN(CCO)CC4)c3c2C1 (configuration not stated)
17,6.4 µg/mL,COc1ccc(S(=O)(=O)N2CCc3ccccc32)cc1[N+](=O)[O-]
18,> 53.3 µg/mL,COC(=O)c1cccc(-n2c(CCC(=O)O)ccc2-c2cccs2)c1
19,> 46.4 µg/mL,CCCCC(=O)Nc1cccc(-c2nc3ncccc3o2)c1C
20,25.4 µg/mL,COc1ccc(S(=O)(=O)Nc2ccc(C)cn2)cc1
21,> 46.1 µg/mL,O=C(COC(=O)/C=C/c1ccc(F)cc1)NCC1CCCO1 (configuration not stated)
22,> 40.9 µg/mL,CCCCc1nc2cc(C(=O)N3CCCC3)ccc2o1
23,33 µg/mL,O=C1C2=C(CCCC2)C(=O)N1CNc1ccccc1
